From paper PMC6273962, “Design, Synthesis and Structure-Activity Relationships of Novel Diaryl Urea Derivatives as Potential EGFR Inhibitors” (Molecules, 2016) come the findings set out here.

The assay deals with EGFR (Homo sapiens, UniProt P00533). The assay can be described thus: mobility shift kinase assay (Caliper, FAM-labeled peptide). Format: biochemical.
Chain of EGFR (P00533 25-1210): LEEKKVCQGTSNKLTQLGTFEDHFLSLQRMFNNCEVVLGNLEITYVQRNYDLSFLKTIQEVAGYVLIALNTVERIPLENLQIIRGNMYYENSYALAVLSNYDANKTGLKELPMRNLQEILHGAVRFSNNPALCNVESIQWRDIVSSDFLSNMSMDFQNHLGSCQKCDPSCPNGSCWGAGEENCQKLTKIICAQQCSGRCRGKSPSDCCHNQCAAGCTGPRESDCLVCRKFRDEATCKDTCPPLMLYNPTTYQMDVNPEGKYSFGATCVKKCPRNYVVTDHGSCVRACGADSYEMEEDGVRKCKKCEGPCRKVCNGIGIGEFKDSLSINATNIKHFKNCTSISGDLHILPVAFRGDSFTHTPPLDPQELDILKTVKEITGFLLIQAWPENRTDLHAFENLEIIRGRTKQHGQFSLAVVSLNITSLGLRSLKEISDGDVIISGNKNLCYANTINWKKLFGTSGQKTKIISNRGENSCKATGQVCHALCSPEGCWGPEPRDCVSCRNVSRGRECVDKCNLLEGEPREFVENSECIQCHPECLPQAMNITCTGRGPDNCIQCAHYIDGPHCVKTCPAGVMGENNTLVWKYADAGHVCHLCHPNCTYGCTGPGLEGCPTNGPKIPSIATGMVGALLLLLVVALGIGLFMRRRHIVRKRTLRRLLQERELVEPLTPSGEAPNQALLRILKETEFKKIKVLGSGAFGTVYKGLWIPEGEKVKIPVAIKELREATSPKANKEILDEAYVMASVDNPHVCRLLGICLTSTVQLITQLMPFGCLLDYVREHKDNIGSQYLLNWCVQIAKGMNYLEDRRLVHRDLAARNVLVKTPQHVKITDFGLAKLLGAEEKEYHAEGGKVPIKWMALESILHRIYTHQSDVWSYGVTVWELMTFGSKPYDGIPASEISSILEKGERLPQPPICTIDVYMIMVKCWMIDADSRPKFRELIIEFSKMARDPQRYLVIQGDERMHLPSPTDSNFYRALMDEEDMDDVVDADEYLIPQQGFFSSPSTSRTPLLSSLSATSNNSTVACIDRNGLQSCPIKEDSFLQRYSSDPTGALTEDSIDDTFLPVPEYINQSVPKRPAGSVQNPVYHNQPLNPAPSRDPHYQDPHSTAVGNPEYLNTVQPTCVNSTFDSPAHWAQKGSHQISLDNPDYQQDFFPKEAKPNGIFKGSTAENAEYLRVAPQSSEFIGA

For `Cc1cccc(Cl)c1NC(=O)Nc1ccc(-c2nc(NCCN(C)C)c3ccccc3n2)cc1` [5a, 1-(2-Chloro-6-methylphenyl)-3-(4-(4-((2-(dimethylamino)ethyl)amino)quinazolin-2-yl)phenyl)urea], the IC50 (as a rule, the concentration at which inhibition is half-maximal) stood at 56 nM.
